Results published in patent US20250136934A1, “PRODUCTION OF INDUCED MIDBRAIN DOPAMINERGIC PROGENITOR CELLS FROM PLURIPOTENT STEM CELLS” (NUWACELL BIOTECHNOLOGIES CO., LTD., priority 2023, published 2025).

Test system: OTX2+ imDAP cells
Experiment: FACS analysis of OTX2 expression of imDAP cells derived from hiPSCs
Type: cell-based, human
Settings: 4-step protocol, Day 16
Experimental: • 1. Individualize and collect cells by either Accutase or TrypLE treatment. • 2. Wash cells with 1 ml PBS and pellet cells at 250×g for […]. • 3. Remove supernatant, add ˜200 μl of 4% PFA, mix and fix for 10 min at RT. • 4. Pellet cells at 350×g for 5 min. • 5. Wash cells by 1 ml of FACS buffer and pellet cells at 350×g for 5 min. • 6. Remove supernatant, add 200 μl/tube of FACS buffer/0.1% Triton X, mix for 10 min at RT. • 7. Wash cells by 1 ml of FACS buffer and pellet cells at 350×g for 5 min. • 8. Remove supernatant, add 200 μl/tube of primary antibody diluted in FACS buffer, mix gently, and incubate for 30 min at RT. • 9. Wash cells by 1 ml of FACS buffer and pellet cells at 350×g for 5 min. • 10. Remove supernatant, and add 200 μl of secondary antibody diluted in FACS buffer, mix gently, and incubate for 30 min at RT. • 11. Wash cells by 1 ml of FACS buffer and pellet cells at 300×g for 5 min. • 12. Remove supernatant, add 200 μl of FACS buffer, and run samples on the flow cytometer.
On Day-1, EB formation (Stage 1) was carried out by dissociating hiPSCs (Nuwacell) to form a single-cell suspension and resuspending it in Epic medium (Nuwacell, #RP01001) containing 10 μM Blebbistatin (MCE, #HY-13441) in T25 flasks on a belly dancer and culturing the cells overnight. On Day 0, ventral midbrain floor plate differentiation (Stage 2) was initiated by changing the medium to a Stage 2-1 differentiation medium containing DMEM: F12/B27 (plus Vitamin A) (98:2, v/v) as basal medium and supplemented with 0.5 μM LDN193189, 10 μM SB431542, 500 ng/mL SHH C24II, 2 μM Purmorphamine, 10 nM SAG and 1.2 μM CHIR99021 and culturing the cells for 3 Days. […] The cells of each group were stained with OTX2-FITC antibody (Miltenyi, #130-121-195), the percentage of OTX2+ imDAP cells were analyzed by flow cytometry (FIG. 8A). The cells obtained by Boost-CHIR treatment from D4 to D6, D7 or D8, or from D5 to D7 or D8 were analyzed by qRT-PCR for dorsal midbrain marker PAX6 (FIG. 8B).

Cc1cnc(-c2cnc(NCCNc3ccc(C#N)cn3)nc2-c2ccc(Cl)cc2Cl)[nH]1 [CHIR, CHIR99021]
percentage of cells positive for OTX2 (Boost-CHIR 7.5 μM from Day 4 to Day 6 (Stage 2-2)): 75.29% | percentage of cells positive for OTX2 (Boost-CHIR 7.5 μM from Day 4 to Day 7 (Stage 2-2)): 71.92% | percentage of cells positive for OTX2 (Boost-CHIR 7.5 μM from Day 4 to Day 8 (Stage 2-2)): 79.83%
